Laboratory results from patent US9156831B2, “Chemical compounds” (ASTRAZENECA AB, priority 2013, dated 2015).

Columns and labels:
[1] = system: BT474 xenograft; assay: Tumour growth inhibition, BT474 xenograft model; type: in vivo, mouse
Description: BT474 is an estrogen receptor positive breast tumour cell lines with elevated Her2 expression and carries a mutation in the PIK3CA gene (K111N). Female Swiss athymic nude mice (swiss nu/nu-AZUK) were transplanted subcutaneously with human epithelial breast ductal carcinoma cell line BT474c (derived in AZ from BT474-ATCC HTB-20) tumours passaged in mice. Mice were implanted with 0.36 mg 60 day oestrogen pellet (Innovative Research of America) 24 hours prior to cell implantation. 5×10^6 cells in 50% matrigel (BD Bioscience) were injected s.c. on the left flank of the animals.
(§1) Animals were randomised into groups of 10-15 when tumours reached a volume of ˜200-300 mm^3 and treatment commenced. Animals were dosed for 3-4 weeks by peroral route, with compound in a suitable vehicle at defined doses and schedules. Tumours were measured two-three times weekly by caliper and volume of tumours calculated using elliptical formula (pi/6×width×width×length).

[2] = system: HCC70 xenograft; assay: Tumour growth inhibition, HCC70 xenograft model; type: in vivo, mouse; details: AZD8186 alone 50 mg/kg BID every day; FIG. 13
Description: HCC70 is breast tumour cell line which is deficient in PTEN gene expression. Female Swiss athymic nude mice (swiss nu/nu—AZUK) were transplanted subcutaneously with the breast ductal epithelial tumour cell line HCC70 (ATCC—CRL2315) cells. 1×10^6 cells in 50% matrigel (BD Bioscience) were injected s.c. on the left flank of the animals.
as §1

[3] = molecular target: PI3K-β (Homo sapiens (Human), UniProt P42338); assay: In vitro enzyme inhibition assay (Kinase Glo); type: biochemical; details: Test protocol a; mean of replicates
Description: (§2) The inhibition of PI3K-β, PI3K-α, PI3K-γ and PI3K-δ was evaluated in a Kinase Glo based enzyme activity assay using human recombinant enzymes. The assay platform indirectly measured the depletion of ATP after incubation with enzyme, PIP2 substrate, ATP and compound.
(§3) After completion of the enzyme reaction the remaining ATP was used in a secondary enzymatic reaction, where Luciferase converted beetle luciferin into oxyluciferin under the emission of light. A direct relationship existed between the luminescence measured and the ATP remaining in a completed kinase reaction. Therefore, the luminescence was inversely related to the kinase activity.
(§4) Compounds in 100% DMSO were added to assay plates by acoustic dispensing. PI3K enzyme was added in a Tris buffer (50 mM Tris pH7.4, 0.05% CHAPS, 2.1 mM DTT, and 10 mM magnesium chloride) and allowed to preincubate with compound for 20 minutes prior to addition of substrate solution containing PIP2 and ATP. The enzyme reaction was stopped after 80 minutes by the addition of Kinase Glo detection solution containing Lucferin and Luciferase (from Kinase Glo® Plus Luminecent Kinase Assay kit (Promega #V3772). Plates were left for 30 minutes at room temperature then read on a Pherastar Instrument with a standard Luminescence filter block. The final concentration of DMSO, ATP and PIP2 in the assay were, 1%, 8 μM, and 80 μM respectively.
(§5) IC50 values were calculated using a log curve fitting to a non-linear regression fit.

[4] = molecular target: PI3K-δ (Homo sapiens (Human), UniProt O00329); assay: In vitro enzyme inhibition assay (Kinase Glo); type: biochemical; details: Test protocol a; mean of replicates
Description: as §2, §3, §4, §5

[5] = molecular target: ATR kinase (Homo sapiens (Human), UniProt Q13535); assay: Phospho Chk1 (Ser345) in HT29 cells (ATR cell assay); type: cell-based; details: Test protocol f, one test replicate only
Description: ATR (Ataxia Telangiectasia+Rad3-related kinase) is a PI3-kinase-related kinase which phosphorylates multiple substrates on serine or threonine residues in response to DNA damage or replication blocks. Chk1, a downstream protein kinase of ATR, plays a key role in DNA damage checkpoint control. Activation of Chk1 involves phosphorylation of Ser317 and Ser345 (the latter regarded as the preferential target for phosphorylation/activation by ATR).
This was a cell based assay to measure inhibition of ATR kinase, by measuring a decrease in phosphorylation of Chk1 (Ser 345) in HT29 cells, following treatment with compound and the UV mimetic 4NQO (Sigma #N8141). HT29 cells (ECACC #85061109) were seeded into 384 well assay plates (Costar #3712) at a density of 6000 cells/well in 40 μl EMEM medium containing 1% L glutamine and 10% FBS and allowed to adhere overnight. The following morning compounds in 100% DMSO were added to assay plates by acoustic dispensing. After 1 hour incubation at 37° C. and 5% CO2, 40 nl of 3 mM 4NQO in 100% DMSO was added to all wells by acoustic dispensing, except minimum control wells which were left untreated with 4NQO to generate a null response control. Plates were returned to the incubator for a further 1 hour. Then cells were fixed by adding 20 μl of 3.7% formaldehyde in PBS solution and incubating for 20 mins at room temperature. Then 20 μl of 0.1% Triton X100 in PBS was added and incubated for 10 minutes at room temperature, to permeabalise cells. Then the plates were washed once with 50 μl/well PBS, using a Biotek EL405 plate washer.
Phospho-Chk1 Ser 345 antibody (Cell Signalling Technology #2348) was diluted 150 fold in PBS containing 0.05% polysorbate/Tween and 15 μl was added to each well and incubated over night at room temperature. The next morning plates were washed three times with 50 μl/well PBS, using a Biotek EL405 plate washer, and then 20 μl of secondary Ab solution, containing 500 fold diluted Alexa Fluor 488 Goat anti-rabbit IgG (Molecular Probes #A-11008) and 0.002 mg/ml Hoeschst dye (Molecular Probes #H-3570), in PBST, was added. After 2 hours incubation at room temperature, the plates were washed three times with 50 μl/well PBS, using a Biotek EL405 plate washer, and plates were then sealed with black plate seals until read. Plates were read using an ArrayScan VTI instrument, using an XF53 filter with 10× objective. A two laser set up was used to analyse nuclear staining with Hoeschst (405 nM) and secondary antibody staining of pChk1 (488 nM).

[6] = molecular target: PI3K-α (Homo sapiens (Human), UniProt P42336); assay: In vitro enzyme inhibition assay (Kinase Glo); type: biochemical; details: Test protocol a; mean of replicates
Description: as §2, §3, §4, §5

[7] = molecular target: PI3K-α (Homo sapiens (Human), UniProt P42336, K111N); assay: Phosphorylated AKT (Thr308) in BT474 cells (PI3K-α cell assay); type: cell-based; details: Test protocol c, mean of replicates
[8] = system: MCF7 xenograft; assay: Tumour growth inhibition, MCF7 xenograft model; type: in vivo, mouse; details: olaparib alone 100 mg/kg QD every day; FIG. 12
Description: MCF7 is an estrogen receptor positive breast tumour cell line carrying a mutation in the PIKC3CA gene (E545K). […] SCID mice (AZ UK) were transplanted subcutaneously (s.c.) with human breast adenocarcinoma cell line MCF7 (ICRF London) to determine anti-tumour activity of PI3 kinase inhibitors. Mice were implanted with a 0.5 mg 21 day oestrogen pellet (Innovative Research of America) 24 hours prior to cell implantation. 5×10^6 cells in 50% matrigel (BD Bioscience) were injected s.c. on the left flank of the animals.
as §1

Sequence of PI3K-α (Homo sapiens (Human), UniProt P42336, K111N) (P42336 whole entry K111N, looked up): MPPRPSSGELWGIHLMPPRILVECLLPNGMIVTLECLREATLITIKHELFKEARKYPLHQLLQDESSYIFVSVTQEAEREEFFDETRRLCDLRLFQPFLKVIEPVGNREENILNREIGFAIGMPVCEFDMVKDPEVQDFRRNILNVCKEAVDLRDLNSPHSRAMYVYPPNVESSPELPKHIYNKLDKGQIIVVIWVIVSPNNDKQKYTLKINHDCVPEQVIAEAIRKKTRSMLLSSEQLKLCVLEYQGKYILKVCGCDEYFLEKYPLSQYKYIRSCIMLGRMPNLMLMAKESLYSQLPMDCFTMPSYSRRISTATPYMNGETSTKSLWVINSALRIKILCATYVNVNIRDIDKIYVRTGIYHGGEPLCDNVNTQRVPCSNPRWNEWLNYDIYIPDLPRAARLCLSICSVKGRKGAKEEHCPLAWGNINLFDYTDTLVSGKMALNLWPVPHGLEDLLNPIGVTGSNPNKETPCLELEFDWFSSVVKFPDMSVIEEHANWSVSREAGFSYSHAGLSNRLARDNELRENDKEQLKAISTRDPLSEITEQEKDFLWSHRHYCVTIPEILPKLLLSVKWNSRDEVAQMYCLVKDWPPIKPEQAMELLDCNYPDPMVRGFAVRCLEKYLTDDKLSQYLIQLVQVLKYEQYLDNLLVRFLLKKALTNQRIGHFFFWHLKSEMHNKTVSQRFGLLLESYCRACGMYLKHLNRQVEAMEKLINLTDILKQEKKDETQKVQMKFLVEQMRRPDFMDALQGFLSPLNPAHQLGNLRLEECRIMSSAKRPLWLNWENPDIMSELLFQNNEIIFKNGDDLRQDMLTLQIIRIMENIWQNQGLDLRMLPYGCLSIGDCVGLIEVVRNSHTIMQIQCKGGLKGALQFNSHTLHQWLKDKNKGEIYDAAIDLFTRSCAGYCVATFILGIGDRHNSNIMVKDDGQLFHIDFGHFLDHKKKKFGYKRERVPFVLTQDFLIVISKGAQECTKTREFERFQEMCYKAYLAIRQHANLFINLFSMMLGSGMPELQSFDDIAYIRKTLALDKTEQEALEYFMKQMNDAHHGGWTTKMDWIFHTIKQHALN
Sequence of PI3K-α (Homo sapiens (Human), UniProt P42336, K111N) (P27986 whole entry partner, looked up): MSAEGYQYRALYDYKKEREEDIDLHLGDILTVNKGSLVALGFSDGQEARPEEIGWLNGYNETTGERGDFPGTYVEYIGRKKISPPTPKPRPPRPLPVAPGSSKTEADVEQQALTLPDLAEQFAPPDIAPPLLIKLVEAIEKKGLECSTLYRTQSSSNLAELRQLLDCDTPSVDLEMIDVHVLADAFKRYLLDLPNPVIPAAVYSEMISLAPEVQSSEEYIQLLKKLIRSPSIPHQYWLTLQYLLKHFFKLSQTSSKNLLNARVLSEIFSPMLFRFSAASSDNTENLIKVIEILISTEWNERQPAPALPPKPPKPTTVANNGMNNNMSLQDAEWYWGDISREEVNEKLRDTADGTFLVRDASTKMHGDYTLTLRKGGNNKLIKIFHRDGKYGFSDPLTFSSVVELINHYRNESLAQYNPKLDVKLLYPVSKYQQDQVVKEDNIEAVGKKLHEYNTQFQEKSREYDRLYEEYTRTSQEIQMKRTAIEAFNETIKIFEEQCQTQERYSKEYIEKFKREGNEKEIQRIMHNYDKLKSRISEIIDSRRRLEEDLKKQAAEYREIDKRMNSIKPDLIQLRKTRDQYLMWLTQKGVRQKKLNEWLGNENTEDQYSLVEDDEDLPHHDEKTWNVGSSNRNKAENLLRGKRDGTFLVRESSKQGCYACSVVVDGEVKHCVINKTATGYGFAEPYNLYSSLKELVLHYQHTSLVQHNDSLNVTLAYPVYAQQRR
Sequence of PI3K-β (P42338 whole entry): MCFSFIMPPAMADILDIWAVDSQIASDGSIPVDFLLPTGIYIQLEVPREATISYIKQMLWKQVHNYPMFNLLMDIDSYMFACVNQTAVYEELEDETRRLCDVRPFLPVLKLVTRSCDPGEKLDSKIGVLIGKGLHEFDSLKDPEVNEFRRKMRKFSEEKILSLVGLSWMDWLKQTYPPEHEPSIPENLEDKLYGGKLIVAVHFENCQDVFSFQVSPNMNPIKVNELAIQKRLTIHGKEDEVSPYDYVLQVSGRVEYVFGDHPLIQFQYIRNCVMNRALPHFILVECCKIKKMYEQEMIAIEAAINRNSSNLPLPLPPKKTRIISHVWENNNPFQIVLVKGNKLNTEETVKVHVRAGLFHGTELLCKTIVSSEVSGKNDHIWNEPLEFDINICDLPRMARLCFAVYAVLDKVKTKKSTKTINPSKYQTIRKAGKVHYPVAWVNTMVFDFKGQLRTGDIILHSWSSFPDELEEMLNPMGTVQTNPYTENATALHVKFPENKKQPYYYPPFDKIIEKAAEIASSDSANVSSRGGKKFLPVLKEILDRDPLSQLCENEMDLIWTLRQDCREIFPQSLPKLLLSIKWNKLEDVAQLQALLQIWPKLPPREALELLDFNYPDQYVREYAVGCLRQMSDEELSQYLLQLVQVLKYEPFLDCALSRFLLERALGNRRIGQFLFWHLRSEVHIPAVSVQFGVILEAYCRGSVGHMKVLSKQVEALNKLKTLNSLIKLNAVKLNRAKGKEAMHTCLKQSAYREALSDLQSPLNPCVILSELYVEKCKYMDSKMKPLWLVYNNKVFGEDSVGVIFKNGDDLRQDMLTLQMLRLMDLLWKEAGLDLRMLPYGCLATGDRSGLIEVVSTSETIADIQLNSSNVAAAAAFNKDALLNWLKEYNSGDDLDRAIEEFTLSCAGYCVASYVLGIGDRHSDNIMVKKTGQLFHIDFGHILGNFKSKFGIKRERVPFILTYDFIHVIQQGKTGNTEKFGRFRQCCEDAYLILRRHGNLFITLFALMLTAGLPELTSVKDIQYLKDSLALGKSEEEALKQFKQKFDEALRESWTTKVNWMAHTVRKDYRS
Sequence of PI3K-β (P27986 whole entry partner): as the sequence (P27986 whole entry partner, looked up) above
Sequence of PI3K-δ (O00329 whole entry): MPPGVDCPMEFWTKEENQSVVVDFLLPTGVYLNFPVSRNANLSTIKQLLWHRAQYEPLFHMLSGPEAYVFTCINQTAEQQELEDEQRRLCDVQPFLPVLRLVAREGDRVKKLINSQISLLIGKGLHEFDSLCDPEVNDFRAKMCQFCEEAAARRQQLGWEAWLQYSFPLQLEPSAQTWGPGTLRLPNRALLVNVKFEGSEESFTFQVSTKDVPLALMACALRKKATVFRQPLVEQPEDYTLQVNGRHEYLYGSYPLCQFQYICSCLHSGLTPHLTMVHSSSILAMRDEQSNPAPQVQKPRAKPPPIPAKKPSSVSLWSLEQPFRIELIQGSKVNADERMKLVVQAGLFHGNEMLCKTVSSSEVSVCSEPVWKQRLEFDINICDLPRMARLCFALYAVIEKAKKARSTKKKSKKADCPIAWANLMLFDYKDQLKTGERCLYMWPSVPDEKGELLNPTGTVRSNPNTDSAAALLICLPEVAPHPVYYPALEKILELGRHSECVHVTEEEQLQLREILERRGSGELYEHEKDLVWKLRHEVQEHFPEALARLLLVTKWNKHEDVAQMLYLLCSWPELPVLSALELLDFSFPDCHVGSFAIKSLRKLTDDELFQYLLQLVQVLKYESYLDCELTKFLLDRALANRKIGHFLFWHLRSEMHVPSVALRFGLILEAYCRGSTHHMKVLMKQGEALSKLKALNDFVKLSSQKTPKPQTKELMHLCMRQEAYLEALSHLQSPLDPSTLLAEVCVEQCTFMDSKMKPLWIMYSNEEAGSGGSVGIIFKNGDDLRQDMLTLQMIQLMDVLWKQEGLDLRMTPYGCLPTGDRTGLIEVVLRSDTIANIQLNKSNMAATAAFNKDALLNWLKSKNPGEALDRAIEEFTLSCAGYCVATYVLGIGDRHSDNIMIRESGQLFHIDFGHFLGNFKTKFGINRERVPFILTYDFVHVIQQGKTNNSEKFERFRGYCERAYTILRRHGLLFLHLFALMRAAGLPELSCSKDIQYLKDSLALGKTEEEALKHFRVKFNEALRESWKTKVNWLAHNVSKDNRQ
Sequence of PI3K-δ (P27986 whole entry partner): as the sequence (P27986 whole entry partner, looked up) above
Sequence of PI3K-α (Homo sapiens (Human), UniProt P42336) (P42336 whole entry, looked up): as the sequence (P42336 whole entry K111N, looked up) above, with N111K counted along it
Sequence of PI3K-α (Homo sapiens (Human), UniProt P42336) (P27986 whole entry partner, looked up): as the sequence (P27986 whole entry partner, looked up) above

For NC1(C(=O)N[C@@H](CCO)c2ccc(Cl)cc2)CCN(c2ncnc3[nH]ccc23)CC1 [AZD5363, (S)-4-amino-N-(1-(4-chlorophenyl)-3-hydroxypropyl)-1-(7H-pyrrolo[2,3-d]pyrimidin-4-yl)piperidine-4-carboxamide, reference compound], the tumour growth ([1]; AZD5363 alone 100 mg/kg BID, 2 days on/5 days off, vs vehicle, FIG. 10) was “partially inhibited tumour growth” and the tumour growth ([1]; AZD5363 alone 170 mg/kg BID, 2 days on/5 days off, vs vehicle, FIG. 9) was “partially inhibited tumour growth”.
For C[C@@H](Nc1cc(F)cc(F)c1)c1cc(C(=O)N(C)C)cc2c(=O)cc(N3CCOCC3)oc12 [AZD8186, 8-((1R)-1-(3,5-difluorophenylamino)ethyl)-N,N-dimethyl-2-morpholino-4-oxo-4H-chromene-6-carboxamide, reference compound], the tumour growth [2] was “partially inhibited tumour growth”.
Compound C[C@@H](O)CC(=O)N1CCC(c2nc(-c3cnc(N)c(-c4nnc(C(C)(C)C)o4)n3)n(C)n2)CC1 [Example 4, (3R)-1-[4-[5-[5-amino-6-(5-tert-butyl-1,3,4-oxadiazol-2-yl)pyrazin-2-yl]-1-methyl-1,2,4-triazol-3-yl]-1-piperidyl]-3-hydroxy-butan-1-one] has an IC50 [3] of 2910 nM, an IC50 [4] of less than 12 nM and an IC50 [5] greater than 30000 nM.
With C[C@H](O)CC(=O)N1CCC(c2nc(-c3cnc(N)c(-c4nnc(C(C)(C)C)o4)n3)n(C)n2)CC1 [Example 5, (3S)-1-[4-[5-[5-amino-6-(5-tert-butyl-1,3,4-oxadiazol-2-yl)pyrazin-2-yl]-1-methyl-1,2,4-triazol-3-yl]-1-piperidyl]-3-hydroxy-butan-1-one] the IC50 [3] was 3310 nM, the IC50 [4] was 12 nM and the IC50 [5] was greater than 30000 nM.
C[C@H](CO)C(=O)N1CCC(c2nc(-c3cnc(N)c(-c4nnc(C(C)(C)C)o4)n3)n(C)n2)CC1 [Example 6, (2R)-1-[4-[5-[5-amino-6-(5-tert-butyl-1,3,4-oxadiazol-2-yl)pyrazin-2-yl]-1-methyl-1,2,4-triazol-3-yl]-1-piperidyl]-3-hydroxy-2-methyl-propan-1-one] showed an IC50 [3] of 3420 nM, an IC50 [4] of less than 12 nM and an IC50 [5] greater than 30000 nM.
With Cn1nc(C2CCN(C(=O)C(C)(C)O)CC2)nc1-c1cnc(N)c(-c2nnc(C(C)(C)C)o2)n1 [Example 7, 1-[4-[5-[5-amino-6-(5-tert-butyl-1,3,4-oxadiazol-2-yl)pyrazin-2-yl]-1-methyl-1,2,4-triazol-3-yl]-1-piperidyl]-2-hydroxy-2-methyl-propan-1-one] the IC50 [6] was 37 nM, the IC50 [3] was 6260 nM and the IC50 [4] was 14 nM. The IC50 [7] was 420 nM and the IC50 [5] was greater than 30000 nM.
Work on Cn1nc(C2CCN(C(=O)CC(=O)O)CC2)nc1-c1cnc(N)c(-c2nnc(C(C)(C)C)o2)n1 [Example 8, 3-[4-[5-[5-amino-6-(5-tert-butyl-1,3,4-oxadiazol-2-yl)pyrazin-2-yl]-1-methyl-1,2,4-triazol-3-yl]-1-piperidyl]-3-oxo-propanoic acid] yielded an IC50 [6] of 24 nM, an IC50 [3] of 1520 nM and an IC50 [4] of 12 nM. For the same compound, the IC50 [7] was 590 nM and the IC50 [5] was greater than 30000 nM.
Work on CCn1nc(C2CCN(C(=O)CC(=O)O)CC2)nc1-c1cnc(N)c(-c2nnc(C(C)(C)C)o2)n1 [Example 9, 3-[4-[5-[5-amino-6-(5-tert-butyl-1,3,4-oxadiazol-2-yl)pyrazin-2-yl]-1-ethyl-1,2,4-triazol-3-yl]-1-piperidyl]-3-oxo-propanoic acid] yielded an IC50 [3] of 640 nM and an IC50 [4] of less than 10 nM.
Compound CCn1nc(C2CCN(C(=O)[C@@H](O)CO)CC2)nc1-c1cnc(N)c(-c2nnc(C(C)(C)C)o2)n1 [Example 10, (2S)-1-[4-[5-[5-amino-6-(5-tert-butyl-1,3,4-oxadiazol-2-yl)pyrazin-2-yl]-1-ethyl-1,2,4-triazol-3-yl]-1-piperidyl]-2,3-dihydroxy-propan-1-one] has an IC50 [7] of 85 nM.
Compound CCn1nc(C2CCN(C(=O)[C@H](O)CO)CC2)nc1-c1cnc(N)c(-c2nnc(C(C)(C)C)o2)n1 [Example 11, (2R)-1-[4-[5-[5-amino-6-(5-tert-butyl-1,3,4-oxadiazol-2-yl)pyrazin-2-yl]-1-ethyl-1,2,4-triazol-3-yl]-1-piperidyl]-2,3-dihydroxy-propan-1-one] has an IC50 [7] of 110 nM.
O=C(c1cc(Cc2n[nH]c(=O)c3ccccc23)ccc1F)N1CCN(C(=O)C2CC2)CC1 [olaparib, 4-[3-(4-cyclopropanecarbonyl-piperazine-1-carbonyl)-4-fluoro-benzyl]-2H-phthalazin-1-one, reference compound] was tested, and the tumour growth ([1]; olaparib alone 100 mg/kg QD every day, FIG. 11) was “no significant effect on tumour growth” and the tumour growth [8] was “minimal effect on tumour growth”.
